Each structure is given as a SMILES string. Read-outs that look alike come from different tables or passages of the source.

The text below walks through data of PMC11495047 (Journal of Virology, 2024).

Series [1] deals with CedV vRdRp (rCedV TC-tr minigenome) (Cedar virus, UniProt J7GXK9). The series is classed as cell-based.
For a further series, the system named is rCedV. The series can be described thus: microbe, parasite or virus in culture. The class given is cell-based.
The target of series [2] is NiV vRdRp (rNiV TC-tr minigenome) (Nipah virus, UniProt Q997F0).
Series [3] addresses GhV vRdRp (rGhV TC-tr minigenome) (Ghana virus, UniProt H9M6P4). The class given is cell-based.
For series [4] the following is noted: in vivo; cited from earlier work.
Another series has as its system rNiV. Description: microbe, parasite or virus in culture. The series is classed as cell-based.

Turning to `NC(=O)c1c(F)cccc1-c1cccc2cnccc12` [GHP-88309], the IC50 stood at 5700 nM in series [1] (read-out: IC50), 1600 nM in the series on rCedV (read-out: IC50) and 1700 nM in series [3]. The “susceptibility of rNiV TC-tr minigenome” value in series [2] is on record as “no susceptibility”. Besides, the oral bioavailability result in series [4] is “high oral bioavailability”.
Take `O=c1ccn([C@@H]2O[C@](F)(CO)[C@@H](O)[C@H]2O)c(=O)[nH]1` [EIDD-2749, 4′-Fluorouridine]: the IC50 in series [1] came out at 2100 nM; in the series on rCedV (Cedar virus, BSR-T7/5, 24 h), 700 nM; in the series with rNiV it was 2900 nM; with rNiV (Henipavirus nipahense, BHK) it was 2600 nM.

In general, IC50 refers to the concentration that inhibits the measured activity by half.
